# Laboratory results as given in US20230330134A1, “METHOD OF PROPHYLAXIS OF CORONAVIRUS AND/OR RESPIRATORY SYNCYTIAL VIRUS INFECTION” (Starpharma Pty Ltd., priority 2020, published 2023).
# Counter-ions that a name gives are not always drawn. Like-named read-outs stand apart in the source and are kept apart here.
# Legend:
# [1] = system: SARS-CoV-2 (hCoV-19/Australia/VIC01/2020); assay type: cell-based
# [2] = system: SARS-CoV-2 hCoV-19/Australia/VIC01/2020; assay: microbe, parasite or virus in culture; assay type: cell-based; conditions: Severe acute respiratory syndrome coronavirus 2, 96 h; positive control; Vero cells; […]; CPE by MTT after 4 days; read-out: EC50
# [3] = system: SARS-CoV-2 (2019-nCoV/USA-WA1/2020); assay: microbe, parasite or virus in culture; assay type: cell-based; conditions: for EC50: read-out: EC50
# BetaCoV/Wuhan/WIV04/2019 = conditions: against BetaCoV/Wuhan/WIV04/2019; cited from earlier work
# SARS = conditions: cited from earlier work
# [4] = system: SARS-CoV-2 2019-nCoV/USA-WAl/2020; assay: Antiviral activity in primary human bronchial epithelial cells (HBEpC); assay type: cell-based; conditions: highest concentration tested (600 µg/mL), added 1 hour prior to infection, day 4
molecule,measurement,setting,value
CCN(CCO)CCCC(C)Nc1ccnc2cc(Cl)ccc12 (centres unmarked) [Hydroxychloroquine sulfate],effect on virus replication,"[1]; 15 µM, any time point",no discernible effect
"CCC(CC)COC(=O)[C@H](C)N[P@](=O)(OC[C@H]1O[C@@](C#N)(c2ccc3c(N)ncnn23)[C@H](O)[C@@H]1O)Oc1ccccc1 [Remdesivir, reference compound]",EC50,[2],5.05 µM
same,EC50,"[3]; Severe acute respiratory syndrome coronavirus 2, Calu-3",0.589 µM
same,EC50,"[3]; Severe acute respiratory syndrome coronavirus 2, Vero C1008",0.791 µM
same,activity in the plaque assay,[3]; positive control,active
same,inhibition of virus replication,[1],< 1 log10 TCID50
CCN(CC)CCCC(C)Nc1ccnc2cc(Cl)ccc12 (centres unmarked) [chloroquine],EC50,BetaCoV/Wuhan/WIV04/2019,1.13 µM
same,IC50,SARS; against SARS,8 µM
same,CC50,SARS,261 µM
iota-carrageenan [reference compound],reduction of infection by nucleocapsid ELISA,[4],17%
same,reduction of infection in the plaque assay,[4],21%
